In patent US20230101747A1 (Schrödinger, Inc., priority 2019, published 2023):

How the values were obtained:
[1] = tested on: phosphorylation of MCM2 S53 (CDC7 substrate) in colo205 cells; assay: Phosphorylated MCM2 MSD electrochemiluminescence assay; assay type: cell-based; conditions: Homo sapiens, COLO 205; colo205 cells, 20 h incubation; read-out: pMCM2-S53 MSD Colo205 IC50
Method: Phosphorylated MCM2 MSD Electrochemiluminescence Assay
The effect of CDC7 inhibitors on cellular phosphorylation of the CDC7 substrate MCM2 was determined using the following protocol:
A total of 40,000 colo205 cells in 100 uL culture medium (1640 medium+10% Fetal bovine serum+1% Penicillin-Streptomycin) were plated in 96-well cell culture plates and allowed to attach for 6 hours. 3-fold serial dilutions of test compounds were prepared in completed PBS at 25× final concentration and 4 uL of each were added to the cells and incubated for 20 hours at 37° C., 5% CO2. Each concentration was tested in duplicate. After the 20 h incubation, cells were washed with 150 uL PBS and lysed with 40 uL MSD lysis buffer (obtained from Meso Scale Diagnostics) supplied with 1× complete ULTRA cocktail inhibitor (obtained from Roche). To detect phosphorylation of MCM2 S53, 30 μL of capture antibody solution (obtained from Abnova, catalog number H00004171-M01, 1:500) was added to each well of MULTI-ARRAY 96-well High Bind Plate, and incubated overnight. The antibody solution was removed, wells blocked with BSA solution and plates washed, followed by addition of 30 ul of cell lysate per well. After 2 h incubation, plates were washed. 30 μL of 1× detection antibody solution (obtained from Abcam, catalog number ab109133, 1:1000) was then added to each well and incubate for 1 hour. Plates were washed and 30 μL of 1× secondary antibody solution (obtained from MSD, catalog number R32AB-1, 1:5000) was added to each well and incubate for 1 hour. Plates were washed and 150 μL of 1× Read Buffer T was added to each well of the MSD plate. The electrochemiluminescence signal was measured on a MESO SECTOR S600 plate reader. The percentage of remaining phosphorylated MCM2 signal was calculated following the equation below.
HC (high control): Cells treated with DMSO Cpds: Cells treated with test compounds LC (low control): Cells treated with positive control CDC7 inhibitor

[2] = molecular target: T1, Full length human CDC7 protein co-expressed with DBF4 (Homo sapiens, UniProt O00311); assay: CDC7 kinase biochemical assay (ADP-Glo, PDKtide substrate); conditions: 0.1 nM CDC7/DBF4, 1 uM ATP, 10 uM PDKtide, 4 h; read-out: CDC7 ADP-Glo PDKtide IC50
T1 construct: Full length human CDC7 protein co-expressed with DBF4; purchased SignalChem (China)
Procedure, shortened: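 ADP-Glo luminescence measured ADP made over a 4 h reaction of 0.1 nM CDC7/DBF4 (full-length human) with 10 uM PDKtide and 1 uM ATP. Buffer was 40 mM Tris pH 7.5 with 20 mM MgCl2, 0.1 mg/ml BSA, 50 uM DTT. Inhibition normalized to DMSO and positive-control inhibitor wells.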

T1 sequence (O00311 whole entry): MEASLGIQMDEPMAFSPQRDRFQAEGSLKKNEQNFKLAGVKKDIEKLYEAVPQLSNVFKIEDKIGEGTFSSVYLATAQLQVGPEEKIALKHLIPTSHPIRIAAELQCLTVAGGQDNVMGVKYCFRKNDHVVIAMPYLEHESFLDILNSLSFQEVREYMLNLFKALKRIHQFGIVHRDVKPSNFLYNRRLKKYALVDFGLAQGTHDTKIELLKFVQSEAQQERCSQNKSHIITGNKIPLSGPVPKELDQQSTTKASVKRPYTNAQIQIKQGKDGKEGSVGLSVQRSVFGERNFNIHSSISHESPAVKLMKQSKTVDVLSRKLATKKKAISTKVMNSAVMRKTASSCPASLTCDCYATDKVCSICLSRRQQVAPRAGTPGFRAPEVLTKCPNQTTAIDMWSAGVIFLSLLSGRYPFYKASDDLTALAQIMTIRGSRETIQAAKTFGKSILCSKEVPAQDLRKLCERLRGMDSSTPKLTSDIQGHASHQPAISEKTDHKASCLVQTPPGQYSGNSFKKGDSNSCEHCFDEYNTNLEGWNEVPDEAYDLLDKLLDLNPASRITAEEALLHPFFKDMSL
T1 sequence (Q9UBU7 whole entry partner): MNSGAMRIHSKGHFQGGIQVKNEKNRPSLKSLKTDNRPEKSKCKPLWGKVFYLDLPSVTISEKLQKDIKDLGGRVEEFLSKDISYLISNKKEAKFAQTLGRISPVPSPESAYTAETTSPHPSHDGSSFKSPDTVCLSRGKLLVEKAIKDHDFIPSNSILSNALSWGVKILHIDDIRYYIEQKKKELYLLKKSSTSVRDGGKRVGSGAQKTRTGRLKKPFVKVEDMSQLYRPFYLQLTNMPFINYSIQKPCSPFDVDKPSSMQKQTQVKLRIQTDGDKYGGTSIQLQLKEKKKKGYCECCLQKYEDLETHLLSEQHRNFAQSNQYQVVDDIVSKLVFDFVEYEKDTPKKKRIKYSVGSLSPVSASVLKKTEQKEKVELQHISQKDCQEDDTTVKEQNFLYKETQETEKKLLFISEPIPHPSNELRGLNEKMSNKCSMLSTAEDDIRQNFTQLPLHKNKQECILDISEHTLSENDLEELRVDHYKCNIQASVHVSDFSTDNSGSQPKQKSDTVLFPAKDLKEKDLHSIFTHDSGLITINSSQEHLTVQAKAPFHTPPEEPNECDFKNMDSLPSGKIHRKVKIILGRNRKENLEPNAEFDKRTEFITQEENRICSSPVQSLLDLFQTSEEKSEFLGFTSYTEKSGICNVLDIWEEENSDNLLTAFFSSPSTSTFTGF

IC50 [1]	IC50 [2]	SMILES
256 nM	< 1 nM	O=C1NC[C@@H](C2CCOCC2)N2CCOc3c(-c4cn[nH]c4)sc1c32 (single isomer, unassigned) [Compound 27]
5 nM	< 1 nM	O=C1N[C@@H]([C@H]2CCCO2)CN2CC(F)(F)Cc3c(-c4cn[nH]c4)sc1c32 (single isomer, unassigned) [Compound 118]
12 nM	< 1 nM	O=C1N[C@@H](C23CCC(CC2)O3)CN2CC(F)(F)Cc3c(-c4cn[nH]c4)sc1c32 (single isomer, unassigned) [Compound 121]
12 nM	< 1 nM	COC[C@H]1CN2C[C@@H](F)Cc3c(-c4cn[nH]c4)sc(c32)C(=O)N1 (single isomer, unassigned) [Compound 125]
902 nM	< 1 nM	COC[C@H]1CN2C[C@H](F)Cc3c(-c4cn[nH]c4)sc(c32)C(=O)N1 (single isomer, unassigned) [Compound 126]
16 nM	< 1 nM	C[C@H]1CN2CCOc3c(-c4cn[nH]c4)sc(c32)C(=O)N1 [Compound 16, (S)-7-methyl-2-(1H-pyrazol-4-yl)-4,5,7,8-tetrahydro-3-oxa-1-thia-5a,8-diazabenzo[cd]azulen-9(6H)-one]
57 nM	< 1 nM	O=C1N[C@H](C2CCC2)CN2CCOc3c(-c4cn[nH]c4)sc1c32 [Compound 19, (R)-7-cyclobutyl-2-(1H-pyrazol-4-yl)-4,5,7,8-tetrahydro-3-oxa-1-thia-5a,8-diazabenzo[cd]azulen-9(6H)-one]
41 nM	< 1 nM	C[C@H]1CN2CCCc3c(-c4cn[nH]c4)sc(c32)C(=O)N1 [Compound 30, (S)-7-methyl-2-(1H-pyrazol-4-yl)-4,5,7,8-tetrahydro-3H-1-thia-5a,8-diazabenzo[cd]azulen-9(6H)-one]
812 nM	< 1 nM	O=C1N[C@@H](CO)CN2CCCc3c(-c4cn[nH]c4)sc1c32 [Compound 32, (R)-7-(hydroxymethyl)-2-(1H-pyrazol-4-yl)-4,5,7,8-tetrahydro-3H-1-thia-5a,8-diazabenzo[cd]azulen-9(6H)-one]
80 nM	< 1 nM	O=C1NC[C@H](CO)N2CCOc3c(-c4cn[nH]c4)sc1c32 [Compound 33, (R)-6-(hydroxymethyl)-2-(1H-pyrazol-4-yl)-4,5,7,8-tetrahydro-3-oxa-1-thia-5a,8-diazabenzo[cd]azulen-9(6H)-one]
1810 nM	1 to 10 nM	O=C1NC[C@@H](COCc2ccccc2)N2CCOc3c(-c4cn[nH]c4)sc1c32 [Compound 38, (S)-6-((benzyloxy)methyl)-2-(1H-pyrazol-4-yl)-4,5,7,8-tetrahydro-3-oxa-1-thia-5a,8-diazabenzo[cd]azulen-9(6H)-one]
265 nM	< 1 nM	O=C1N[C@H](CO)CN2CCOc3c(-c4cn[nH]c4)sc1c32 [Compound 39, (S)-7-(hydroxymethyl)-2-(1H-pyrazol-4-yl)-4,5,7,8-tetrahydro-3-oxa-1-thia-5a,8-diazabenzo[cd]azulen-9(6H)-one]
87 nM	< 1 nM	Cc1cnn(C[C@H]2CN3CCOc4c(-c5cn[nH]c5)sc(c43)C(=O)N2)c1 [Compound 41, (R)-7-((4-methyl-1H-pyrazol-1-yl)methyl)-2-(1H-pyrazol-4-yl)-4,5,7,8-tetrahydro-3-oxa-1-thia-5a,8-diazabenzo[cd]azulen-9(6H)-one]
–	< 1 nM	O=C1NC[C@@H](CC2(O)CC2)N2CCCc3c(-c4cn[nH]c4)sc1c32 [Compound 89, (9R)-9-[(1-hydroxycyclopropyl)methyl]-3-(1H-pyrazol-4-yl)-2-thia-8,11-diazatricyclo [6.4.1.0^4,13]trideca-1(13),3-dien-12-one]
–	1 to 10 nM	CCC(=O)C[C@@H]1CNC(=O)c2sc(-c3cn[nH]c3)c3c2N1CCC3 [Compound 90, (9R)-9-(2-oxobutyl)-3-(1H-pyrazol-4-yl)-2-thia-8,11-diazatricyclo[6.4.1.0^4,13]trideca-1(13),3-dien-12-one]
–	< 1 nM	O=C1N[C@@H](C2CCC2)[C@H](CO)N2CCOc3c(-c4cn[nH]c4)sc1c32 [Compound 92, (9R,10S)-10-cyclobutyl-9-(hydroxymethyl)-3-(1H-pyrazol-4-yl)-5-oxa-2-thia-8,11-diazatricyclo[6.4.1.0^4,13]trideca-1(13),3-dien-12-one]
–	1 to 10 nM	O=C1NC[C@H](CN2CCC2)N2CCCc3c(-c4cn[nH]c4)sc1c32 [Compound 94, (R)-6-(azetidin-1-ylmethyl)-2-(1H-pyrazol-4-yl)-4,5,7,8-tetrahydro-3H-1-thia-5a,8-diazabenzo[cd]azulen-9(6H)-one]
–	1 to 10 nM	Cc1cnn(C[C@H]2CNC(=O)c3sc(-c4cn[nH]c4)c4c3N2CCC4)c1 [Compound 95, (R)-6-((4-methyl-1H-pyrazol-1-yl)methyl)-2-(1H-pyrazol-4-yl)-4,5,7,8-tetrahydro-3H-1-thia-5a,8-diazabenzo[cd]azulen-9(6H)-one]
–	< 1 nM	N#CC[C@@H]1CNC(=O)c2sc(-c3cn[nH]c3)c3c2N1CCC3 [Compound 97, (R)-2-(9-oxo-2-(1H-pyrazol-4-yl)-4,5,6,7,8,9-hexahydro-3H-1-thia-5a,8-diazabenzo[cd]azulen-6-yl)acetonitrile]
–	< 1 nM	C[C@H]1CN2CC(F)(F)Cc3c(-c4cn[nH]c4)sc(c32)C(=O)N1 [Compound 101, (10S)-6,6-difluoro-10-methyl-3-(1H-pyrazol-4-yl)-2-thia-8,11-diazatricyclo[6.4.1.0^4,13]trideca-1(13),3-dien-12-one]
–	< 1 nM	COC[C@@H]1CNC(=O)c2sc(-c3ccncc3)c3c2N1CCO3 [Compound 105, (S)-6-(methoxymethyl)-2-(pyridin-4-yl)-4,5,7,8-tetrahydro-3-oxa-1-thia-5a,8-diazabenzo[cd]azulen-9(6H)-one]
–	< 1 nM	O=C1N[C@H](C2CCC2)CN2CCOc3c(-c4ccncc4)sc1c32 [Compound 106, (R)-7-cyclobutyl-2-(pyridin-4-yl)-4,5,7,8-tetrahydro-3-oxa-1-thia-5a,8-diazabenzo[cd]azulen-9(6H)-one]
–	< 1 nM	CC(C)(O)C[C@H]1CN2CC(F)(F)Oc3c(-c4cn[nH]c4)sc(c32)C(=O)N1 [Compound 116, (S)-4,4-difluoro-7-(2-hydroxy-2-methylpropyl)-2-(1H-pyrazol-4-yl)-4,5,7,8-tetrahydro-3-oxa-1-thia-5a,8-diazabenzo[cd]azulen-9(6H)-one]
–	< 1 nM	CC(C)(O)C[C@@H]1CN2CC(F)(F)Oc3c(-c4cn[nH]c4)sc(c32)C(=O)N1 [Compound 117, (R)-4,4-difluoro-7-(2-hydroxy-2-methylpropyl)-2-(1H-pyrazol-4-yl)-4,5,7,8-tetrahydro-3-oxa-1-thia-5a,8-diazabenzo-[cd]azulen-9(6H)-one]
–	< 1 nM	CC(C)(O)C[C@@H]1CN2CC(F)(F)Cc3c(-c4cn[nH]c4)sc(c32)C(=O)N1 [Compound 131, (R)-4,4-difluoro-7-(2-hydroxy-2-methylpropyl)-2-(1H-pyrazol-4-yl)-4,5,7,8-tetrahydro-3H-1-thia-5a,8-diazabenzo[cd]azulen-9(6H)-one]
–	< 1 nM	CC(C)(O)C[C@H]1CN2CC(F)(F)Cc3c(-c4cn[nH]c4)sc(c32)C(=O)N1 [Compound 132, (S)-4,4-difluoro-7-(2-hydroxy-2-methylpropyl)-2-(1H-pyrazol-4-yl)-4,5,7,8-tetrahydro-3H-1-thia-5a,8-diazabenzo[cd]azulen-9(6H)-one]
–	< 1 nM	COC[C@@H]1CNC(=O)c2sc(-c3cn[nH]c3)c3c2N1CC(F)(F)O3 [Compound 133, (S)-4,4-difluoro-6-(methoxymethyl)-2-(1H-pyrazol-4-yl)-4,5,7,8-tetrahydro-3-oxa-1-thia-5a,8-diazabenzo[cd]azulen-9(6H)-one]
–	1 to 10 nM	O=C1N[C@H](CN2CCOCC2)CN2CC(F)(F)Cc3c(-c4cn[nH]c4)sc1c32 [Compound 134, (R)-4,4-difluoro-7-(morpholinomethyl)-2-(1H-pyrazol-4-yl)-4,5,7,8-tetrahydro-3H-1-thia-5a,8-diazabenzo[cd]azulen-9(6H)-one]
–	1 to 10 nM	COC1CN(C[C@H]2CN3CC(F)(F)Cc4c(-c5cn[nH]c5)sc(c43)C(=O)N2)C1 [Compound 141, (S)-4,4-difluoro-7-((3-methoxyazetidin-1-yl)methyl)-2-(1H-pyrazol-4-yl)-4,5,7,8-tetrahydro-3H-1-thia-5a,8-diazabenzo[cd]azulen-9(6H)-one]
